What was measured:
[1] = test system: glutamine synthetase (GS); conditions: cited from earlier work
R. meliloti = assay: Sensitivity of R. meliloti to PTC and PTT; assay type: cell-based, Rhizobium meliloti
Excerpt: Plasmids pIB17.1 and pIB17.2 were therefore transferred by means of a 2 factor cross into the Rhizobium meliloti strain 2011.

plants [2] = conditions: in vivo; cited from earlier work
wild-type plant = assay: Injection of N-acetyl-PTC or N-acetyl-PTT into tobacco plants: stability, transport, effect on wild-type plant; assay type: in vivo
Nicotiana tabacum = assay: Treatment of Nicotiana tabacum plants carrying the deacetylase gene; assay type: in vivo; conditions: transgenic Nicotiana tabacum, killed by liberated PTC or PTT
Procedure: The deacetylase gene which was modified in Example 1 was transferred into A. tumefaciens LBA4404 using a two-factor cross. Nicotiana tabacum leaf disks were incubated with the resulting strains LBA4404/17.1 and LBA4404/17.2 and, after 3 days, transferred to a kanamycin-containing shoot-inducing medium. Southern hybridization can be used to test regenerating kanamycin-resistant shoots for the presence of the deacetylase gene.

plants [3] = assay: Herbicidal activity, uptake, transport and deacetylation in plants; assay type: in vivo; conditions: for deacetylation activity in plants / uptake, transport and degradation in plants: in vivo; for herbicidal activity: plants without deacetylase gene
Excerpt: In this way, the above-described 2-gene system can be reduced to a 1-gene system and thereby crucially simplified, as explained in more detail below: any plants can be transformed with a Streptomycetes-derived deacetylase gene under the control of a tissue-specific promoter. Following application of N-acetylphosphinothricin or N-acetylphosphinothricin-tripeptide, the tissue-specific expression leads to the immediate death of the corresponding tissue.

GS = conditions: E. coli with endogenous deacetylase activity
Excerpt: The deacetylase converts N-Ac-PTC into PTC, which then inhibits the GS in a known manner, as can be measured in a γ-glutamyltransferase assay (Bender et al., J. Bacteriol. 129, 1001-1009, 1977).

[4] = test system: Gram-positive and Gram-negative bacteria; conditions: cited from earlier work
Botrytis cinerea = conditions: cited from earlier work

Question: For “2-amino-4-methylphosphinobutyric acid [PTC]”, which “inhibitor of glutamine synthetase (GS)” value [1] is on record?
Answer: inhibitor of glutamine synthetase

Question: What about the “sensitivity of R. meliloti” value (R. meliloti) of the same compound?
Answer: reacts very sensitively

Question: What about the herbicidal action (plants [2]) of the same compound?
Answer: acts as a total herbicide

Question: For `CC(=O)NC(CCP(C)(=O)O)C(=O)O` (stereo not drawn) [N-acetyl-PTC, N-acetylphosphinothricin], which “stability and transport in the plant cell” value (wild-type plant; in vivo) is on record?
Answer: stable in the plant cell and transported into all cells

Question: What about the “consequences for the wild-type plant” value (wild-type plant) of the same compound?
Answer: Neither of the two substances has recognizably negative consequences

Question: And the “effect on plants containing the deacetylase gene” value (Nicotiana tabacum)?
Answer: the plants are then killed

Question: And the “deacetylation activity in plants” value (plants [3])?
Answer: No deacetylation activity

Question: What about the “uptake, transport and degradation in plants” value (plants [3]) of the same compound?
Answer: taken up by plants and transported and not degraded immediately

Question: What about the herbicidal activity (plants [3]) of the same compound?
Answer: neither substance is herbicidally active

Question: And the “inhibition of GS activity after adding the substance” value (GS)?
Answer: efficient inhibition of GS activity

Question: For `CC(=O)NC(CCP(C)(=O)O)C(=O)NC(C)C(=O)NC(C)C(=O)O` (stereo not drawn) [N-acetyl-PTT, N-acetylphosphinothricin tripeptide], which “consequences for the wild-type plant” value (wild-type plant) is on record?
Answer: Neither of the two substances has recognizably negative consequences

Question: What about the “effect on plants containing the deacetylase gene” value (Nicotiana tabacum) of the same compound?
Answer: the plants are then killed

Question: What about the “deacetylation activity in plants” value (plants [3]) of the same compound?
Answer: No deacetylation activity

Question: What about the “uptake, transport and degradation in plants” value (plants [3]) of the same compound?
Answer: taken up by plants and transported and not degraded immediately

Question: What about the herbicidal activity (plants [3]) of the same compound?
Answer: neither substance is herbicidally active

Question: For `C[C@H](NC(=O)[C@H](C)NC(=O)[C@@H](N)CCP(C)(=O)O)C(=O)O` [PTT, phosphinothricylalanylalanine], which “activity against Gram-positive and Gram-negative bacteria” value [4] is on record?
Answer: active against Gram-positive and Gram-negative bacteria

Question: What about the “sensitivity of R. meliloti” value (R. meliloti) of the same compound?
Answer: reacts very sensitively

Question: And the “activity against the fungus Botrytis cinerea” value (Botrytis cinerea)?
Answer: also against the fungus Botrytis cinerea
